Assay results from PubChem BioAssay AID330 (DTP/NCI, 2004).
Several values for one entry are separate records, joined by “and”; a condition that tells them apart may be missing. Equal values may be shown once. Toxic doses and inconclusive results are not listed.

Test system: P388 leukemia ip, CD2F1 mice, survival T/C
Experiment: NCI In Vivo Anticancer Drug Screen. Data for tumor model P388 Leukemia (intraperitoneal) in CD2F1 (CDF1) mice
Conditions: endpoint: median survival time, higher = longer survival
Procedure, shortened: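 Mice carrying the transplanted tumor received test compound or vehicle. Survival was recorded in each group, and the value is the treated-group measurement divided by that of the vehicle-treated control group.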

[1] = dose: 50.0 mg/kg/injection, schedule: Q01DX009 (ip), vehicle: saline with Tween-80
[2] = dose: 100.0 mg/kg/injection, schedule: Q01DX009 (ip), vehicle: saline with Tween-80
[3] = dose: 100.0 mg/kg/injection, schedule: Q04DX003 (ip), vehicle: saline with Tween-80
[4] = dose: 12.5 mg/kg/injection, schedule: Q01DX009 (ip), vehicle: distilled water + Tween-80
[5] = dose: 25.0 mg/kg/injection, schedule: Q01DX009 (ip), vehicle: distilled water + Tween-80
[6] = dose: 50.0 mg/kg/injection, schedule: Q01DX009 (ip), vehicle: distilled water + Tween-80
[7] = dose: 100.0 mg/kg/injection, schedule: Q01DX009 (ip), vehicle: distilled water + Tween-80
[8] = dose: 200.0 mg/kg/injection, schedule: Q01DX009 (ip), vehicle: distilled water + Tween-80
[9] = dose: 50.0 mg/kg/injection, schedule: Q01DX009 (ip), vehicle: Klucel (hydroxypropylcellulose) (HPC)
[10] = dose: 100.0 mg/kg/injection, schedule: Q01DX009 (ip), vehicle: Klucel (hydroxypropylcellulose) (HPC)
[11] = dose: 200.0 mg/kg/injection, schedule: Q01DX009 (ip), vehicle: Klucel (hydroxypropylcellulose) (HPC)
[12] = dose: 60.0 mg/kg/injection, schedule: Q01DX005 (ip), vehicle: saline with Tween-80
[13] = dose: 120.0 mg/kg/injection, schedule: Q01DX005 (ip), vehicle: saline with Tween-80
[14] = dose: 240.0 mg/kg/injection, schedule: Q01DX005 (ip), vehicle: saline with Tween-80
[15] = dose: 200.0 mg/kg/injection, schedule: Q01DX009 (ip), vehicle: saline with Tween-80
[16] = dose: 100.0 mg/kg/injection, schedule: Q01DX009 (ip), vehicle: saline
[17] = dose: 200.0 mg/kg/injection, schedule: Q01DX009 (ip), vehicle: saline
[18] = dose: 25.0 mg/kg/injection, schedule: Q04DX003 (ip), vehicle: saline
[19] = dose: 50.0 mg/kg/injection, schedule: Q04DX003 (ip), vehicle: saline
[20] = dose: 100.0 mg/kg/injection, schedule: Q04DX003 (ip), vehicle: saline

CN(C)CCC(=O)C(=Cc1ccccc1)C(=O)CCN(C)C
T/C (dose: 50.0 mg/kg/injection, schedule: Q01DX005 (ip), vehicle: saline): 114 % of control
T/C (dose: 100.0 mg/kg/injection, schedule: Q01DX005 (ip), vehicle: saline): 99 % of control
T/C (dose: 200.0 mg/kg/injection, schedule: Q01DX005 (ip), vehicle: saline): 101 % of control

CCOC(=O)N1C(=O)c2ccccc2C1=O
T/C (dose: 25.0 mg/kg/injection, schedule: Q01DX009 (ip), vehicle: saline with Tween-80): 110 % of control
T/C (dose: 25.0 mg/kg/injection, schedule: Q04DX003 (ip), vehicle: saline with Tween-80): 115 % of control
T/C [1]: 105 % of control
T/C (dose: 50.0 mg/kg/injection, schedule: Q04DX003 (ip), vehicle: saline with Tween-80): 110 % of control
T/C [2]: 100 % of control
T/C [3]: 120 % of control

COC(=O)C(CSCc1ccccc1)NC(=O)CCNC(C)=O (configuration not stated)
T/C [4]: 97 % of control
T/C [5]: 100 % of control
T/C [6]: 91 % of control
T/C [7]: 92 % of control
T/C [8]: 91 % of control

CCOCCC(=O)NCC(=O)NC1C(CO)OC(Nc2ncnc3nc[nH]c23)C(O)C1O (configuration not stated)
T/C (dose: 3.12 mg/kg/injection, schedule: Q01DX009 (ip), vehicle: water): 98 % of control
T/C (dose: 6.25 mg/kg/injection, schedule: Q01DX009 (ip), vehicle: water): 88 % of control
T/C (dose: 12.5 mg/kg/injection, schedule: Q01DX009 (ip), vehicle: water): 98 % of control
T/C (dose: 25.0 mg/kg/injection, schedule: Q01DX009 (ip), vehicle: water): 106 % of control
T/C (dose: 50.0 mg/kg/injection, schedule: Q01DX009 (ip), vehicle: water): 101 % of control

COC(=O)c1ccc(SCCC(=O)CSc2ccc(C(=O)OC)cc2)cc1
T/C [9]: 98 % of control
T/C [10]: 94 % of control
T/C [11]: 94 % of control

CC1=C(C)C2(C)c3ccccc3NC(=S)C12C (configuration not stated)
T/C (dose: 100.0 mg/kg/injection, schedule: Q01DX001 (ip), vehicle: Klucel (hydroxypropylcellulose) (HPC)): 101 % of control
T/C (dose: 200.0 mg/kg/injection, schedule: Q01DX001 (ip), vehicle: Klucel (hydroxypropylcellulose) (HPC)): 105 % of control
T/C (dose: 400.0 mg/kg/injection, schedule: Q01DX001 (ip), vehicle: Klucel (hydroxypropylcellulose) (HPC)): 102 % of control

C[As](C)SCC1OC(n2cnc3c(N)ncnc32)C2OC(C)(C)OC12 (configuration not stated)
T/C [4]: 101 % of control
T/C [5]: 100 % of control
T/C [6]: 110 % of control
T/C [7]: 110 % of control
T/C [8]: 101 % of control

CCOC(=O)/C=C/C(=O)N1CCN(C(=O)/C=C/C(=O)OCC)C(C)C1 (configuration not stated)
T/C (dose: 50.0 mg/kg/injection, schedule: Q01DX005 (ip), vehicle: Klucel (hydroxypropylcellulose) (HPC)): 113 % of control
T/C (dose: 90.0 mg/kg/injection, schedule: Q01DX005 (ip), vehicle: Klucel (hydroxypropylcellulose) (HPC)): 108 % of control
T/C (dose: 100.0 mg/kg/injection, schedule: Q01DX005 (ip), vehicle: Klucel (hydroxypropylcellulose) (HPC)): 116 % of control
T/C (dose: 133.0 mg/kg/injection, schedule: Q01DX005 (ip), vehicle: Klucel (hydroxypropylcellulose) (HPC)): 112 % of control

S=C(S)N(Cc1ccccc1)Cc1ccccc1 (tested in a mixture with another compound)
T/C [12]: 105 % of control
T/C [13]: 105 % of control
T/C [14]: 101 % of control

CCOC(=O)CCC1(C(=O)OC)C(=O)CCCCCCC1C(=O)OC (configuration not stated)
T/C [2]: 95 % of control
T/C [15]: 100 % of control
T/C (dose: 400.0 mg/kg/injection, schedule: Q01DX009 (ip), vehicle: saline with Tween-80): 100 % of control

N#Cc1ccccc1N=Nc1ccccc1
T/C (dose: 50.0 mg/kg/injection, schedule: Q01DX009 (ip), vehicle: saline + alcohol): 94 % of control
T/C (dose: 100.0 mg/kg/injection, schedule: Q01DX009 (ip), vehicle: saline + alcohol): 95 % of control
T/C (dose: 200.0 mg/kg/injection, schedule: Q01DX009 (ip), vehicle: saline + alcohol): 97 % of control

S=C(Nc1ccc(Br)cc1)SCc1ccc2c(c1)OCO2
T/C (dose: 50.0 mg/kg/injection, schedule: Q01DX009 (ip), vehicle: suspension in saline): 109 % of control
T/C (dose: 100.0 mg/kg/injection, schedule: Q01DX009 (ip), vehicle: suspension in saline): 119 % of control
T/C (dose: 200.0 mg/kg/injection, schedule: Q01DX009 (ip), vehicle: suspension in saline): 93 % of control

Cc1ccc(S(=O)(=O)CCCCS(=O)(=O)c2ccc(C)cc2)cc1
T/C [12]: 107 % of control
T/C [13]: 104 % of control
T/C [14]: 97 % of control

CCOC(=O)CCC(NC(=O)N(CCCl)CCCl)C(=O)OCC (configuration not stated)
T/C [1]: 154 % of control
T/C [2]: 168 % of control
T/C [3]: 113 % of control
T/C (dose: 132.0 mg/kg/injection, schedule: Q04DX003 (ip), vehicle: saline with Tween-80): 168 % of control
T/C [15]: 181 % of control
T/C (dose: 200.0 mg/kg/injection, schedule: Q04DX003 (ip), vehicle: saline with Tween-80): 150 % of control and 172 % of control
T/C (dose: 300.0 mg/kg/injection, schedule: Q04DX003 (ip), vehicle: saline with Tween-80): 195 % of control

COc1cccc(S(=O)c2ccc([N+](=O)[O-])c3no[n+]([O-])c23)c1 (configuration not stated)
T/C (dose: 3.75 mg/kg/injection, schedule: Q01DX009 (ip), vehicle: saline with Tween-80): 95 % of control
T/C (dose: 7.5 mg/kg/injection, schedule: Q01DX009 (ip), vehicle: saline with Tween-80): 104 % of control
T/C (dose: 15.0 mg/kg/injection, schedule: Q01DX009 (ip), vehicle: saline with Tween-80): 112 % of control

CCC(=O)OC1C(OC2C(C)C(OC3CC(C)(OC)C(O)C(C)O3)C(C)C(=O)OC(CC)C(C)(O)C(O)C(C)C(=O)C(C)CC2(C)O)OC(C)CC1N(C)C (configuration not stated)
T/C (dose: 50.0 mg/kg/injection, schedule: Q01DX009 (ip), vehicle: saline): 105 % of control
T/C [16]: 97 % of control
T/C [17]: 92 % of control

Cc1ncc([N+](=O)[O-])n1CCn1nnc2c1CCCC2
T/C [18]: 100 % of control and 109 % of control
T/C [19]: 100 % of control and 109 % of control
T/C [20]: 115 % of control and 96 % of control
T/C (dose: 200.0 mg/kg/injection, schedule: Q04DX003 (ip), vehicle: saline): 99 % of control and 115 % of control

c1ccc2c(c1)Sc1cnccc1N2CC1CO1 (configuration not stated)
T/C [16]: 109 % of control
T/C [17]: 100 % of control
T/C (dose: 400.0 mg/kg/injection, schedule: Q01DX009 (ip), vehicle: saline): 100 % of control

COC(=O)C1=C(OC)C(C(=O)c2ccccc2)NC1=O (configuration not stated)
T/C [12]: 111 % of control
T/C [13]: 100 % of control
T/C [14]: 99 % of control

COc1ccc2c3c([nH]c2c1)C1CC2C(CC(O)C(OC)C2C(=O)O)CN1CC3 (configuration not stated)
T/C (dose: 60.0 mg/kg/injection, schedule: Q01DX005 (ip), vehicle: Klucel (hydroxypropylcellulose) (HPC)): 100 % of control
T/C (dose: 120.0 mg/kg/injection, schedule: Q01DX005 (ip), vehicle: Klucel (hydroxypropylcellulose) (HPC)): 100 % of control
T/C (dose: 240.0 mg/kg/injection, schedule: Q01DX005 (ip), vehicle: Klucel (hydroxypropylcellulose) (HPC)): 106 % of control

Cc1ccc(C(=O)Nc2ccccn2)cc1
T/C [9]: 100 % of control
T/C [10]: 93 % of control
T/C [11]: 100 % of control

COc1ccc2cc(N3CCCC3)ccc2c1
T/C [18]: 105 % of control
T/C [19]: 96 % of control
T/C [20]: 100 % of control and 104 % of control
T/C (dose: 400.0 mg/kg/injection, schedule: Q04DX003 (ip), vehicle: saline): 107 % of control

O=C(NCc1cccnc1)Nc1cccc2c(NC(=O)NCc3cccnc3)cccc12
T/C [12]: 91 % of control
T/C [13]: 86 % of control
T/C [14]: 86 % of control

Cc1cc(NCCN(C(C)C)C(C)C)nc(Nc2nc3cc(Cl)c(Cl)cc3[nH]2)n1
T/C (dose: 6.25 mg/kg/injection, schedule: Q01DX009 (ip), vehicle: saline sonified): 100 % of control
T/C (dose: 12.5 mg/kg/injection, schedule: Q01DX009 (ip), vehicle: saline sonified): 100 % of control
